According to ChEMBL document CHEMBL3734738, “A structure-activity relationship of non-peptide macrocyclic histone deacetylase inhibitors and their anti-proliferative and anti-inflammatory activities” (Bioorg Med Chem, 2015):

Columns and labels:
Histone deacetylase 1 = Histone deacetylase 1 (Homo sapiens, UniProt Q13547); test: Inhibition of recombinant HDAC1 (unknown origin) expressed in Escherichia coli BL21(DE3) after 60 mins using trichostatin A by label-free mass spectrometry-based SAMDI assay
Histone deacetylase 8 = target: T1, Histone deacetylase 8 (Homo sapiens, UniProt Q9BY41); test: Inhibition of recombinant HDAC8 (unknown origin) expressed in Escherichia coli BL21(DE3) after 60 mins using trichostatin A by label-free mass spectrometry-based SAMDI assay
T1 sequence (Q9BY41 whole entry): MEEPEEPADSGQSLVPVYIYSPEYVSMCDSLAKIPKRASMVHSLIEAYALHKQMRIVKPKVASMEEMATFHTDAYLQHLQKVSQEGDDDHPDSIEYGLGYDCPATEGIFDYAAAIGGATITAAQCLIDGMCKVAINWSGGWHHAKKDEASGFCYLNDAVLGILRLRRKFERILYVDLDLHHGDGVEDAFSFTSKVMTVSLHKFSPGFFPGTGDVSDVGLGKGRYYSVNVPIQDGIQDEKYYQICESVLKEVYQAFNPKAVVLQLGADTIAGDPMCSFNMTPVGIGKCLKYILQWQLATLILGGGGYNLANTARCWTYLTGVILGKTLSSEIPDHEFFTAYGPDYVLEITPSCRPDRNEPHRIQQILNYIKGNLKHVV

[1] = target: T2, Protein deacetylase HDAC6 (Homo sapiens, UniProt Q9UBN7); test: Inhibition of recombinant HDAC6 (unknown origin) expressed in Escherichia coli BL21(DE3) after 60 mins using trichostatin A by label-free mass spectrometry-based SAMDI assay
T2 sequence (Q9UBN7 whole entry): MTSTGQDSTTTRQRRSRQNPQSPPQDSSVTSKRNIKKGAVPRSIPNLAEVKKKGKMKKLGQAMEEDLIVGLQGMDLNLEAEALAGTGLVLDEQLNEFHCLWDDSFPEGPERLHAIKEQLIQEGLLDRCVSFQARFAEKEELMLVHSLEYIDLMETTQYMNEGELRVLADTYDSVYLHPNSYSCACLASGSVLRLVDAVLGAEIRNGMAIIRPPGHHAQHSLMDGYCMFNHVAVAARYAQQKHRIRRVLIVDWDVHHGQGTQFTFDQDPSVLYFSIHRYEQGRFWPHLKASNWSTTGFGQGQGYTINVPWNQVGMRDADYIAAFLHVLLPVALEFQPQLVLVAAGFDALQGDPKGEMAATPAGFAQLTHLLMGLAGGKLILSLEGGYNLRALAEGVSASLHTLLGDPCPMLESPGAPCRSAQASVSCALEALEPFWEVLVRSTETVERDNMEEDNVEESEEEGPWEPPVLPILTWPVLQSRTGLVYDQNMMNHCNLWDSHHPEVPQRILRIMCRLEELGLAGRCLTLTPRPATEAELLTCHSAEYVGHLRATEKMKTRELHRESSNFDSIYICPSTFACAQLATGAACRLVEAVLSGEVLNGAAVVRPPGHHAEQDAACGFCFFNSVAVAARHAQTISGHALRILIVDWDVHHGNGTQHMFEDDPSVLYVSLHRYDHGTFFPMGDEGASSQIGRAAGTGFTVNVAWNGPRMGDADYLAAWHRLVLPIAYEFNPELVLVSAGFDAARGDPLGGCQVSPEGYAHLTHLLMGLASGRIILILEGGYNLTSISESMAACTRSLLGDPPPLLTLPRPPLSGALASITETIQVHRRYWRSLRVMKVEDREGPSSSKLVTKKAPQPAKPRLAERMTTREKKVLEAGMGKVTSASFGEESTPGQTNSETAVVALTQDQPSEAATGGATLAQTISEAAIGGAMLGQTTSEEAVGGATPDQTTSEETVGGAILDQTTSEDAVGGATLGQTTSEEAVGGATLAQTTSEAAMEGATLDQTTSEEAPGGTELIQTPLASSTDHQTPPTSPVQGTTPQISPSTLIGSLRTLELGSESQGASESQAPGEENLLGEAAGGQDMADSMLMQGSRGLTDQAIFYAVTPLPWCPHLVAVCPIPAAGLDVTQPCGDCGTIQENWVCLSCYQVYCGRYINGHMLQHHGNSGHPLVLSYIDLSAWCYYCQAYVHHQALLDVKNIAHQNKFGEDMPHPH

Sequence of Histone deacetylase 1 (Q13547 whole entry): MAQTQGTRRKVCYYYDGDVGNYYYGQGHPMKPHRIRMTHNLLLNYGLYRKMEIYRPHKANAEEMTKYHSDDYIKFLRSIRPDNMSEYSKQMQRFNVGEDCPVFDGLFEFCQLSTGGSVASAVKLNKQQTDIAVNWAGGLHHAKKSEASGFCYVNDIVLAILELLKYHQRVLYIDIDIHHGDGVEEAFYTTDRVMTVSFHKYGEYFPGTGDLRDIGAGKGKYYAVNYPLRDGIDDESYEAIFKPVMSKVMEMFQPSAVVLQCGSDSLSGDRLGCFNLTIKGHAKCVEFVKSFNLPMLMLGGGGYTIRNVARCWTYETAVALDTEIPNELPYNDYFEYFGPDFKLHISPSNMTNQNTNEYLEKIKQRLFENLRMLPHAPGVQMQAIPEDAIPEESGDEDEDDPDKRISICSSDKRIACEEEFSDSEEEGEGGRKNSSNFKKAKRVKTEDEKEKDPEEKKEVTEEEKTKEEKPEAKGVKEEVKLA

Row | SMILES | IC50 (Histone deacetylase 1) | IC50 (Histone deacetylase 8) | IC50 [1]
1 | CC[C@H]1OC(=O)[C@H](C)[C@@H](O[C@@H]2C[C@](C)(OC)[C@H](O)[C@@H](C)O2)[C@H](C)[C@@H](O[C@@H]2O[C@H](C)C[C@H](N(C)C)[C@H]2O)[C@@](C)(O)C[C@@H](C)CN(Cc2ccc(-c3cn(CCCCCC(=O)NO)nn3)cc2)[C@@H](C)[C@@H](O)[C@]1(C)O | 0.145 µM | 2.37 µM | 0.0103 µM
2 | CC[C@H]1OC(=O)[C@H](C)C(=O)[C@H](C)[C@@H](O[C@@H]2O[C@H](C)C[C@H](N(C)Cc3ccc(-c4cn(CCC(=O)NO)nn4)cc3)[C@H]2O)[C@@](C)(OC)C[C@@H](C)C2=NCCN3C(=O)O[C@@]1(C)[C@H]3[C@H]2C | > 10 µM | > 10 µM | 1.73 µM
3 | CC[C@@H]1OC(=O)[C@H](C)[C@@H](O[C@H]2C[C@@](C)(OC)[C@](O)(CN(C)C)[C@H](C)O2)[C@@H](C)[C@@H](O[C@@H]2O[C@H](C)C[C@H](N(C)Cc3ccc(-c4cn(CCCCCC(=O)NO)nn4)cc3)[C@H]2O)[C@](C)(O)C[C@@H](C)CN(C)[C@H](C)[C@@H](O)[C@]1(C)O | 0.16 µM | 1.09 µM | 0.0147 µM
4 | CC[C@@H]1OC(=O)[C@@H](C)[C@H](O[C@@H]2C[C@](C)(OC)[C@@](O)(CN(C)C)[C@@H](C)O2)[C@H](C)[C@H](O[C@@H]2O[C@H](C)C[C@H](N(C)Cc3ccc(-c4cn(CCCCCC(=O)NO)nn4)cc3)[C@H]2O)[C@@](C)(OC)C[C@H](C)C(=O)[C@@H](C)[C@@H](O)[C@@]1(C)O | 0.201 µM | 3.2 µM | 0.0329 µM
5 | CC[C@@H]1OC(=O)[C@H](C)[C@@H](O[C@H]2C[C@@](C)(OC)[C@](O)(CN(C)Cc3ccc(-c4cn(CCC(=O)NO)nn4)cc3)[C@H](C)O2)[C@@H](C)[C@@H](O[C@@H]2O[C@H](C)C[C@H](N(C)C)[C@H]2O)[C@](C)(O)C[C@@H](C)CN(C)[C@H](C)[C@@H](O)[C@]1(C)O | > 10 µM | 2.23 µM | 2.03 µM
6 | CC[C@@H]1OC(=O)[C@@H](C)[C@H](O[C@H]2C[C@@](C)(OC)[C@](O)(CN(C)Cc3ccc(-c4cn(CCCCC(=O)NO)nn4)cc3)[C@H](C)O2)[C@H](C)[C@H](O[C@@H]2O[C@H](C)C[C@H](N(C)C)[C@H]2O)[C@@](C)(OC)C[C@H](C)C(=O)[C@@H](C)[C@@H](O)[C@@]1(C)O | 3.69 µM | 1.82 µM | 0.269 µM
7 | CC[C@@H]1OC(=O)[C@H](C)[C@@H](O[C@@H]2C[C@](C)(OC)[C@H](O)[C@@H](C)O2)[C@@H](C)[C@@H](O[C@@H]2O[C@H](C)C[C@H](N(C)Cc3ccccc3-c3cn(CCCCCC(=O)NO)nn3)[C@H]2O)[C@](C)(O)C[C@@H](C)CN(C)[C@H](C)[C@@H](O)[C@]1(C)O | 0.613 µM | 4.3 µM | 0.178 µM
8 | CC[C@H]1OC(=O)[C@@H](C)[C@H](O[C@H]2C[C@@](C)(OC)[C@@H](O)[C@H](C)O2)[C@H](C)[C@H](O[C@H]2O[C@@H](C)C[C@@H](N(C)Cc3ccc(-c4cn(CC(=O)NO)nn4)cc3)[C@@H]2O)[C@@](C)(O)C[C@H](C)CN(C)[C@@H](C)[C@H](O)[C@@]1(C)O | > 10 µM | > 10 µM | 5.66 µM
9 | CC[C@@H]1OC(=O)[C@@H](C)[C@H](O[C@H]2C[C@@](C)(OC)[C@@H](O)[C@H](C)O2)[C@H](C)[C@H](O[C@@H]2O[C@H](C)C[C@H](N(C)Cc3ccc(-c4cn(CC(=O)NO)nn4)cc3)[C@H]2O)[C@@](C)(OC)C[C@H](C)C(=O)[C@@H](C)[C@@H](O)[C@@]1(C)O | > 10 µM | > 10 µM | > 10 µM
10 | CC[C@H]1OC(=O)[C@H](C)C(=O)[C@H](C)[C@@H](O[C@@H]2O[C@H](C)C[C@H](N(C)Cc3ccc(-c4cn(CC(=O)NO)nn4)cc3)[C@H]2O)[C@@](C)(OC)C[C@@H](C)C2=NCCN3C(=O)O[C@@]1(C)[C@H]3[C@H]2C | > 10 µM | 2.85 µM | > 10 µM
11 | CC[C@H]1OC(=O)[C@H](C)C(=O)[C@H](C)[C@@H](O[C@@H]2O[C@H](C)C[C@H](N(C)Cc3ccc(-c4cn(CCCCC(=O)NO)nn4)cc3)[C@H]2O)[C@@](C)(OC)C[C@@H](C)C2=NCCN3C(=O)O[C@@]1(C)[C@H]3[C@H]2C | 0.269 µM | 3.21 µM | 0.0772 µM
12 | CC[C@H]1OC(=O)[C@@H](C)[C@H](O[C@H]2C[C@@](C)(OC)[C@@H](O)[C@H](C)O2)[C@H](C)[C@H](O[C@H]2O[C@@H](C)C[C@@H](N(C)Cc3ccc(-c4cn(CCCCCC(=O)NO)nn4)cc3)[C@@H]2O)[C@@](C)(O)C[C@H](C)CN(C)[C@@H](C)[C@H](O)[C@@]1(C)O (stereo in doubt) | 0.316 µM | 0.604 µM | 0.0143 µM
13 | CC[C@H]1OC(=O)[C@H](C)[C@@H](O[C@@H]2C[C@](C)(OC)[C@H](O)[C@@H](C)O2)[C@H](C)[C@@H](O[C@@H]2O[C@H](C)C[C@H](N(C)C)[C@H]2O)[C@@](C)(O)C[C@@H](C)CN(Cc2ccc(-c3cn(CCC(=O)NO)nn3)cc2)[C@@H](C)[C@@H](O)[C@]1(C)O | > 10 µM | > 10 µM | 1.23 µM
14 | CC[C@H]1OC(=O)[C@H](C)[C@@H](O[C@@H]2C[C@](C)(OC)[C@H](O)[C@@H](C)O2)[C@H](C)[C@@H](O[C@@H]2O[C@H](C)C[C@H](N(C)C)[C@H]2O)[C@@](C)(O)C[C@@H](C)CN(Cc2ccc(-c3cn(CC(=O)NO)nn3)cc2)[C@@H](C)[C@@H](O)[C@]1(C)O | > 10 µM | > 10 µM | > 10 µM
15 | CC[C@@H]1OC(=O)[C@H](C)[C@@H](O[C@@H]2C[C@](C)(OC)[C@H](O)[C@@H](C)O2)[C@@H](C)[C@@H](O[C@@H]2O[C@H](C)C[C@H](N(C)Cc3cccc(-c4cn(CCCCCC(=O)NO)nn4)c3)[C@H]2O)[C@](C)(O)C[C@@H](C)CN(C)[C@H](C)[C@@H](O)[C@]1(C)O | 0.109 µM | 0.604 µM | 0.0438 µM
16 | CC[C@H]1OC(=O)[C@H](C)[C@@H](O[C@@H]2C[C@](C)(OC)[C@H](O)[C@@H](C)O2)[C@@H](C)[C@@H](O[C@H]2O[C@@H](C)C[C@@H](N(C)Cc3ccc(-c4cn(CCCC(=O)NO)nn4)cc3)[C@@H]2O)[C@](C)(OC)C[C@@H](C)C(=O)[C@H](C)[C@H](O)[C@]1(C)O | 9.91 µM | 0.986 µM | 0.0709 µM
17 | CC[C@H]1OC(=O)[C@H](C)C(=O)[C@H](C)[C@@H](O[C@@H]2O[C@H](C)C[C@H](N(C)Cc3ccccc3-c3cn(CCCCCC(=O)NO)nn3)[C@H]2O)[C@@](C)(OC)C[C@@H](C)C2=NCCN3C(=O)O[C@@]1(C)[C@H]3[C@H]2C | > 10 µM | 1.19 µM | 0.248 µM
18 | CC[C@H]1OC(=O)[C@@H](C)[C@H](O[C@H]2C[C@@](C)(OC)[C@](O)(CN(C)Cc3ccc(-c4cn(CCCCC(=O)NO)nn4)cc3)[C@H](C)O2)[C@H](C)[C@H](O[C@H]2O[C@@H](C)C[C@@H](N(C)C)[C@@H]2O)[C@@](C)(O)C[C@H](C)CN(C)[C@@H](C)[C@H](O)[C@@]1(C)O | 0.531 µM | 0.709 µM | 0.0953 µM
19 | CC[C@H]1OC(=O)[C@H](C)[C@@H](O[C@@H]2C[C@](C)(OC)[C@H](O)[C@@H](C)O2)[C@H](C)[C@@H](O[C@@H]2O[C@H](C)C[C@H](N(C)C)[C@H]2O)[C@@](C)(O)C[C@@H](C)CN(Cc2ccc(-c3cn(CCCC(=O)NO)nn3)cc2)[C@@H](C)[C@@H](O)[C@]1(C)O | > 10 µM | 2.77 µM | 0.62 µM
